Experimental data reported in patent US20180371422A1, “NON-VIRAL IPSCS INDUCING METHOD, COMPOSITIONS, KITS AND IPSCS” (Guangzhou Biocare Biotechnology Co., Ltd, priority 2016, published 2018).
Structures can show the parent of a compound that is named as a salt.

System: urine-derived renal epithelial cells
Test: AP staining, efficiency of AP positive clones (iPSCs induction)
Assay type: cell-based, human
Details: Example 5; day 0 to day 8 of induction culture; FIG. 11-12
Description: 1. The procedure for AP staining is as follows,
a) Aspirate and remove the growth medium from the cultures to be stained when the cell culture is finished, wash the culture with 1×PBS one time; Fix the cells with 4% paraformaldehyde at room temperature for 2 min;
b) Aspirate the fixing solution, wash the culture with 1×TBST for 3 times; Balance with AP buffer at room temperature for 5 min;
c) Chromogenic reaction was performed with AP chromogenic reagent at room temperature in dark for 15 min (5-15 min, terminated when the color of clones became darker and without background, increase the reaction time appropriately if the clones were not stained). The chromogenic reagent was aspirated, cells were washed with 1×PBS for two times, covered with an appropriate amount of 1×PBS, observed and counted under a microscope.
Alkaline phosphatase (AP) is a phosphomonoesterase. The alkaline phosphatase in the cytoplasm can hydrolyze sodium naphthol phosphate to produce α-naphthol in alkaline environments. The latter reacts with a stable azo salt and presents a deep purple color, which the presence of alkaline phosphatase and the abundance of expression could be determined accordingly. Alkaline phosphatase is highly expressed in undifferentiated pluripotent stem cells, and the activity of alkaline phosphatase in the differentiated pluripotent stem cells is decreased. Therefore, whether the cells are clones of iPSCs could be determined by alkaline phosphatase staining (AP staining). And, thus the efficiency of iPSCs production can be easily judged according to the efficiency of AP positive clones.
a) Electroporation transformation: The recombinant plasmids obtained in step 1) were added into the culture of renal epithelial cells after digestion with trypsin, and then transferred into the renal epithelial cells. After electroporation, the cells were seeded on a cell culture plate coated with extracellular matrix;
b) Induction culture: 1-3 days after Step 1), or when the cells reached a confluence of 30% or more, the culture medium of pluripotent stem cell was used to continue induction culture. About 15-30 days after the mature of iPSCs clones, the positive clones of iPSCs were identified by AP staining, and the efficiency of AP positive clones was calculated accordingly;

Cc1c[nH]c(-c2cnc(NCCNc3ccc(C#N)cn3)nc2-c2ccc(Cl)cc2Cl)n1 [CHIR-99021]
preferable concentration for promoting cell reprogramming (AP staining): 3 µM

O=C(NOC[C@H](O)CO)c1ccc(F)c(F)c1Nc1ccc(I)cc1F [PD0325901]
preferable concentration for promoting cell reprogramming (AP staining): 0.5 µM

CCCC(=O)[O-].[Na+] [sodium butyrate, Sodium Butyrate]
preferable concentration for promoting cell reprogramming (AP staining): 0.25 µM

N[C@@H]1C[C@H]1c1ccccc1 [tranylcypromine hydrochloride, Tranylcypromine hydrochloride]
preferable concentration for promoting cell reprogramming (AP staining): 2 µM
